The test system of experiment [1] is protein phosphatase 2A (PP2A). The note with it: cited from earlier work.
Experiment [2] in a line: Home-cage feeding study with suboptimal leptin (leptin sensitization). The experiment is classed as in vivo, mouse. The source says:
Leptin is secreted by adipocytes in proportion to their triglyceride content, signaling to the CNS when peripheral energy stores are full and food consumption should decrease. In HFD-fed mice, chronic increases in adiposity lead to elevations in circulating leptin with no accompanying decrease in food intake, a state that has been termed leptin-resistant. Reducing leptin levels in the blood restores leptin signaling in the hypothalamus (S. Zhao, et al., 2019, cited supra). Thus, the sphingolipid-like compound 893 should function as a leptin-sensitizing agent. To test this model, 18 week old lean, male C57BL/6J mice were treated intraperitoneally with a suboptimal dose of recombinant leptin at ZT8.5 and food intake and body weight measured over the next 18 h. […] In summary, the reduction in food intake in sphingolipid-like compound 893-treated mice is consistent with the reversal of mitochondrial fragmentation in the hypothalamus and likely due in part to the re-sensitization of anorexigenic POMG neurons to leptin when plasma leptin levels are decreased.
Mice were singly housed and allowed to acclimate for 72 h before food intake was monitored. Food consumption was determined by monitoring the weight of food in the hopper. Initial food and body weight measurements were taken at ZT9 and final measurements were taken 16 h later to capture the active period where most consumption occurred. Home cage feeding studies were performed with C57BL/6J mice maintained on a HFD for 24 weeks (33 weeks of age), or ob/ob mice at 8 weeks of age. Mice received vehicle or 120 mg/kg sphingolipid-like compound 893 by gavage at ZT8.5. For experiments involving leptin, 18 week old, SD fed (16% kcal from fat, 2020×, Envigo) C57BL/6J mice received vehicle or 120 mg/kg sphingolipid-like compound 893 by gavage at ZT8.5. […] One ob/ob mouse died during Echo MRI for unknown reasons after 6 d of treatment with sphingolipid-like compound 893; data from this mouse was analyzed prior to death.

Experiment [3] relates to DRP1. The experiment in a line: DRP1 recruitment to mitochondria (DRP1/citrate synthase co-localization) and DRP1 western blot. In kind it is cell-based, mouse. The note with it: MEFs. On the procedure:
Mature adipocytes were serum starved for 16 h then treated with vehicle, ceramide (50 or 100 μM), or sphingolipid-like compound 893 (5 or 10 μM) in serum-free media supplemented with 0.2% fatty-acid free BSA for 3 h after which 100 nM insulin was added for 15 min. To determine total DRP1 protein levels, 100,000 MEFs were seeded into a 6-well plate for 16 h, pre-treated for 3 h with vehicle or sphingolipid-like compound 893 (5 μM) followed by a 3 h incubation in 1% BSA+ethanol or BSA-palmitate (250 μM). Cells were washed once with cold PBS, then lysed in cold RIPA buffer (140 mM NaCl, 10 mM Tris pH 8.0, 1% Triton X-100, 0.1% SDS, 1% sodium deoxycholate) with cOmplete™ protease inhibitor (Cat no. 11697498001, Millipore Sigma, St. Louis, Mo.) and phosSTOP™ phosphatase inhibitor (Cat no. 4906837001, Millipore Sigma). Samples were incubated on ice for 10 min and insoluble material removed by centrifugation (9000×g for 10 min at 4° C.). Protein content was quantified in the supernatant using the Pierce™ BCA Protein Assay Kit (Thermo-Fisher Scientific, Waltham, Mass.). Equal amounts of protein were prepared in NuPAGE® LDS Sample Buffer (NP0007, Invitrogen) containing 50 mM DTT, and heated at 70° C. for 10 min. Proteins were resolved on a NuPAGE® 4-12% Bis-Tris protein gel (NP0336, Invitrogen, Carlsbad, Calif.) and subsequently transferred to a nitrocellulose membrane. Membranes were blocked in 5% BSA in TBST for 1 h, then probed with primary antibodies overnight at 4° C. […] Band intensity was quantified using Image Studio Lite V5.2 software (Li-COR).
MEFs were washed twice with PBS and fixed with 4% paraformaldehyde for 10 min at RT. […] NADH/NADPH autofluorescence was detected with 740 nm excitation and 450±50 nm detectors using a Mai Tai two-photon laser. Fluorescence microscopy was performed on a Zeiss LSM 780 confocal using a 63× oil objective with a […] numerical aperture (NA) or using a Nikon TE2000-S inverted epifluorescence microscope with a 100× oil objective (1.3 NA) and a Photometrics CoolSNAP ES2 monochrome CCD camera. […]
For orientation: In western blotting, separated proteins are transferred to a membrane and probed.

SMILES strings stand for the structures.

Regarding `CCCCCCCCc1ccc([C@H]2CCN[C@@H]2CO)cc1.Cl` [compound 893], the “Effect on PP2A” value in experiment [1] is reported as “activate protein phosphatase 2A (PP2A)”. Further, in experiment [2] (lean chow-fed 18 week old mice, leptin 2 mg/kg i.p. or 893 120 mg/kg by gavage), the “Food intake and body weight over 18 h, single agent” value was “trend towards reduced food intake and body weight”. In experiment [2] (lean chow-fed mice, 893 120 mg/kg by gavage plus leptin 2 mg/kg i.p.), the “Food intake and body weight over 18 h, combined with leptin” value is “statistically significant decrease in food intake and body weight”. The “DRP1 recruitment to mitochondria in response to palmitate” value in experiment [3] (893 5 μM or YM201636 800 nM 3 h, then palmitate 250 μM 3 h) is recorded as “prevented the recruitment of the GTPase that mediates fission, DRP1, to mitochondrial membranes”. Further, in experiment [3] (893 5 μM, palmitate 250 μM, western blot), the “DRP1 protein expression levels” value is given as “without affecting DRP1 protein expression levels”.

(Values after patent US20220409617A1, “Drug Formulations and Methods of Treatment for Metabolic Disorders” (The Regents of the University of California, priority 2019, published 2022).)
